According to the OligoGym collection:
HELM strings list units from the 5' end as sugar, base in round brackets, then linkage (d deoxyribose, r ribose, m 2'-O-methyl, p phosphodiester). Strings are as the collection lists them; they lack the last nucleoside at the 3' end of the tested compound. [moe] = 2'-O-(2-methoxyethyl) (MOE); [sp] = phosphorothioate linkage; [m5C] = 5-methylcytosine

Target: LRRK2
Assay: mouse, dose not given
Settings: ASO

| Substance | 3 h FOB score [score 0-7] |
| --- | --- |
| RNA1{[moe](G)[sp].[moe]([m5C])p.[moe]([m5C])p.[moe]([m5C])p.[moe](A)[sp].d(T)[sp].d(T)[sp].d(T)[sp].d([m5C])[sp].d(T)[sp].d(T)[sp].d([m5C])[sp].d(A)[sp].d(A)[sp].d([m5C])[sp].[moe](A)p.[moe](G)p.[moe](A)[sp].[moe](G)}$$$$ (last 3' nucleoside missing) | 0 |
| RNA1{[moe](A)[sp].[moe](T)p.[moe](A)[sp].[moe](G)[sp].[moe]([m5C])[sp].d(T)[sp].d(T)[sp].d([m5C])[sp].d([m5C])[sp].d(A)[sp].d([m5C])[sp].d([m5C])[sp].d(A)[sp].d([m5C])[sp].d(A)[sp].[moe](A)[sp].[moe](T)p.[moe](A)[sp].[moe](T)}$$$$ (last 3' nucleoside missing) | 2 |
| RNA1{[moe](G)[sp].[moe]([m5C])p.[moe](A)p.[moe]([m5C])p.[moe](A)[sp].d([m5C])[sp].d(A)[sp].d(G)[sp].d(T)[sp].d(G)[sp].d(T)[sp].d(A)[sp].d(G)[sp].d(T)[sp].d([m5C])[sp].[moe](A)p.[moe](T)p.[moe](A)[sp].[moe]([m5C])}$$$$ (last 3' nucleoside missing) | 2 |
| RNA1{[moe](A)[sp].[moe](T)p.[moe](G)p.[moe]([m5C])p.[moe](A)[sp].d(G)[sp].d(T)[sp].d(T)[sp].d(T)[sp].d([m5C])[sp].d(T)[sp].d([m5C])[sp].d(T)[sp].d(A)[sp].d([m5C])[sp].[moe](T)p.[moe]([m5C])p.[moe](T)[sp].[moe](A)}$$$$ (last 3' nucleoside missing) | 0 |
| RNA1{[moe](G)[sp].[moe](T)p.[moe]([m5C])p.[moe](A)p.[moe](A)[sp].d(A)[sp].d([m5C])[sp].d(T)[sp].d([m5C])[sp].d(T)[sp].d(T)[sp].d([m5C])[sp].d(A)[sp].d(G)[sp].d(A)[sp].[moe](G)p.[moe](T)p.[moe](T)[sp].[moe](T)}$$$$ (last 3' nucleoside missing) | 0 |
| RNA1{[moe]([m5C])[sp].[moe](G)p.[moe]([m5C])[sp].[moe](A)[sp].[moe]([m5C])[sp].d(T)[sp].d(T)[sp].d(A)[sp].d(A)[sp].d([m5C])[sp].d(A)[sp].d(A)[sp].d(T)[sp].d(A)[sp].d(T)[sp].[moe]([m5C])[sp].[moe](A)p.[moe](T)[sp].[moe](A)}$$$$ (last 3' nucleoside missing) | 1 |
| RNA1{[moe](G)[sp].[moe](T)p.[moe]([m5C])p.[moe](A)p.[moe]([m5C])[sp].d([m5C])[sp].d(T)[sp].d(T)[sp].d(T)[sp].d([m5C])[sp].d([m5C])[sp].d([m5C])[sp].d(A)[sp].d(A)[sp].d(T)[sp].[moe](G)p.[moe]([m5C])p.[moe](T)[sp].[moe](T)}$$$$ (last 3' nucleoside missing) | 0 |
| RNA1{[moe](T)[sp].[moe](T)p.[moe](G)[sp].[moe](G)[sp].[moe]([m5C])[sp].d(T)[sp].d(G)[sp].d(G)[sp].d(A)[sp].d(A)[sp].d(A)[sp].d(T)[sp].d(G)[sp].d(A)[sp].d(G)[sp].[moe](T)[sp].[moe](G)p.[moe]([m5C])[sp].[moe](A)}$$$$ (last 3' nucleoside missing) | 6 |
| RNA1{[moe](A)[sp].[moe](G)p.[moe]([m5C])p.[moe](A)p.[moe](A)[sp].d(T)[sp].d([m5C])[sp].d(A)[sp].d(T)[sp].d(T)[sp].d(G)[sp].d(G)[sp].d(T)[sp].d(A)[sp].d(G)[sp].[moe]([m5C])p.[moe](A)p.[moe](T)[sp].[moe](A)}$$$$ (last 3' nucleoside missing) | 5 |
| RNA1{[moe](A)[sp].[moe](A)p.[moe]([m5C])[sp].[moe](G)[sp].[moe]([m5C])[sp].d(A)[sp].d([m5C])[sp].d(T)[sp].d(T)[sp].d(A)[sp].d(A)[sp].d([m5C])[sp].d(A)[sp].d(A)[sp].d(T)[sp].[moe](A)[sp].[moe](T)p.[moe]([m5C])[sp].[moe](A)}$$$$ (last 3' nucleoside missing) | 0 |
| RNA1{[moe](A)[sp].[moe](T)p.[moe](G)[sp].[moe](A)[sp].[moe](G)[sp].d(T)[sp].d(G)[sp].d([m5C])[sp].d(A)[sp].d(T)[sp].d(G)[sp].d(G)[sp].d([m5C])[sp].d(A)[sp].d(T)[sp].[moe]([m5C])[sp].[moe](A)p.[moe](A)[sp].[moe](A)}$$$$ (last 3' nucleoside missing) | 6 |
| RNA1{[moe](A)[sp].[moe](T)p.[moe](T)p.[moe](G)p.[moe]([m5C])[sp].d(A)[sp].d(A)[sp].d(T)[sp].d(G)[sp].d(T)[sp].d(T)[sp].d(T)[sp].d([m5C])[sp].d(A)[sp].d(A)[sp].[moe](T)p.[moe](A)p.[moe](T)[sp].[moe](G)}$$$$ (last 3' nucleoside missing) | 1 |
| RNA1{[moe](T)[sp].[moe]([m5C])p.[moe](T)[sp].[moe](T)[sp].[moe]([m5C])[sp].d(A)[sp].d(G)[sp].d(T)[sp].d(T)[sp].d([m5C])[sp].d([m5C])[sp].d(T)[sp].d(T)[sp].d([m5C])[sp].d(A)[sp].[moe](G)[sp].[moe](T)p.[moe]([m5C])[sp].[moe](T)}$$$$ (last 3' nucleoside missing) | 3 |
| RNA1{[moe]([m5C])[sp].[moe]([m5C])p.[moe](A)[sp].[moe]([m5C])[sp].[moe](A)[sp].d(A)[sp].d(A)[sp].d([m5C])[sp].d(T)[sp].d([m5C])[sp].d(A)[sp].d(T)[sp].d(G)[sp].d(G)[sp].d(A)[sp].[moe]([m5C])[sp].[moe](T)p.[moe](T)[sp].[moe]([m5C])}$$$$ (last 3' nucleoside missing) | 7 |
| RNA1{[moe](A)[sp].[moe](T)p.[moe]([m5C])p.[moe]([m5C])p.[moe](A)[sp].d([m5C])[sp].d(A)[sp].d(T)[sp].d(T)[sp].d(T)[sp].d([m5C])[sp].d(T)[sp].d(G)[sp].d(A)[sp].d(A)[sp].[moe](T)p.[moe]([m5C])p.[moe]([m5C])[sp].[moe]([m5C])}$$$$ (last 3' nucleoside missing) | 4 |
| RNA1{[moe](T)[sp].[moe](T)p.[moe]([m5C])[sp].[moe](A)[sp].[moe](T)[sp].d(A)[sp].d(G)[sp].d([m5C])[sp].d(T)[sp].d(T)[sp].d([m5C])[sp].d([m5C])[sp].d(A)[sp].d([m5C])[sp].d([m5C])[sp].[moe](A)[sp].[moe]([m5C])p.[moe](A)[sp].[moe](A)}$$$$ (last 3' nucleoside missing) | 5 |
| RNA1{[moe](A)[sp].[moe](G)p.[moe](G)p.[moe](A)p.[moe](G)[sp].d(A)[sp].d(A)[sp].d(T)[sp].d(G)[sp].d(T)[sp].d(A)[sp].d(T)[sp].d(A)[sp].d(T)[sp].d(G)[sp].[moe]([m5C])p.[moe](T)p.[moe](T)[sp].[moe]([m5C])}$$$$ (last 3' nucleoside missing) | 6 |
| RNA1{[moe](T)[sp].[moe](T)p.[moe]([m5C])p.[moe](A)p.[moe](G)[sp].d(T)[sp].d(T)[sp].d([m5C])[sp].d([m5C])[sp].d(T)[sp].d(T)[sp].d([m5C])[sp].d(A)[sp].d(G)[sp].d(T)[sp].[moe]([m5C])p.[moe](T)p.[moe]([m5C])[sp].[moe](A)}$$$$ (last 3' nucleoside missing) | 4 |
| RNA1{[moe](G)[sp].[moe](G)p.[moe](A)p.[moe](G)p.[moe](A)[sp].d(T)[sp].d(T)[sp].d(A)[sp].d(T)[sp].d(T)[sp].d(T)[sp].d(A)[sp].d(G)[sp].d(T)[sp].d(G)[sp].[moe]([m5C])p.[moe]([m5C])p.[moe]([m5C])[sp].[moe](A)}$$$$ (last 3' nucleoside missing) | 6 |
| RNA1{[moe]([m5C])[sp].[moe](T)p.[moe](G)[sp].[moe](T)[sp].[moe]([m5C])[sp].d(A)[sp].d([m5C])[sp].d([m5C])[sp].d(T)[sp].d(T)[sp].d(T)[sp].d([m5C])[sp].d([m5C])[sp].d([m5C])[sp].d(A)[sp].[moe](A)[sp].[moe](T)p.[moe](G)[sp].[moe]([m5C])}$$$$ (last 3' nucleoside missing) | 3 |
| RNA1{[moe](A)[sp].[moe]([m5C])p.[moe]([m5C])p.[moe]([m5C])p.[moe](T)[sp].d(T)[sp].d(T)[sp].d([m5C])[sp].d([m5C])[sp].d(A)[sp].d(T)[sp].d(G)[sp].d(T)[sp].d(G)[sp].d(A)[sp].[moe](A)p.[moe]([m5C])p.[moe](A)[sp].[moe](T)}$$$$ (last 3' nucleoside missing) | 4 |
| RNA1{[moe](T)[sp].[moe](A)p.[moe](A)[sp].[moe]([m5C])[sp].[moe](G)[sp].d([m5C])[sp].d(A)[sp].d([m5C])[sp].d(T)[sp].d(T)[sp].d(A)[sp].d(A)[sp].d([m5C])[sp].d(A)[sp].d(A)[sp].[moe](T)[sp].[moe](A)p.[moe](T)[sp].[moe]([m5C])}$$$$ (last 3' nucleoside missing) | 2 |
| RNA1{[moe]([m5C])[sp].[moe](T)p.[moe](T)p.[moe]([m5C])p.[moe](A)[sp].d(G)[sp].d(T)[sp].d(T)[sp].d([m5C])[sp].d([m5C])[sp].d(T)[sp].d(T)[sp].d([m5C])[sp].d(A)[sp].d(G)[sp].[moe](T)p.[moe]([m5C])p.[moe](T)[sp].[moe]([m5C])}$$$$ (last 3' nucleoside missing) | 4 |
| RNA1{[moe](A)[sp].[moe](G)p.[moe](T)p.[moe](T)p.[moe](T)[sp].d([m5C])[sp].d(A)[sp].d(T)[sp].d(T)[sp].d([m5C])[sp].d(G)[sp].d(G)[sp].d(T)[sp].d(T)[sp].d(A)[sp].[moe](T)p.[moe](A)p.[moe](A)[sp].[moe](G)}$$$$ (last 3' nucleoside missing) | 7 |
| RNA1{[moe]([m5C])[sp].[moe](G)p.[moe]([m5C])p.[moe](A)p.[moe]([m5C])[sp].d(T)[sp].d(T)[sp].d(A)[sp].d(A)[sp].d([m5C])[sp].d(A)[sp].d(A)[sp].d(T)[sp].d(A)[sp].d(T)[sp].[moe]([m5C])p.[moe](A)p.[moe](T)[sp].[moe](A)}$$$$ (last 3' nucleoside missing) | 0 |
